Reference: US11542288B2, “Antiviral compounds” (priority 2020, dated 2023)

Columns and labels:
HTLV-1 protease [1] = molecular target: T1, HTLV-1 protease (Human T-cell leukemia virus type I, UniProt Q82134, L40I); details: HTLV-1 protease
HIV-1 protease I84V = molecular target: T2, HIV-1 protease I84V (Human immunodeficiency virus type 1 group M subtype B, UniProt P12497, I572V/Q495K); test: HIV enzyme inhibition assay (Ki), I84V variant; format: biochemical; details: drug-resistant protease variant I84V
T2 construct: onto NL4-3 wild-type protease on a pET11a plasmid; made in house

HIV-1 protease 8 Mutant = molecular target: T3, HIV-1 protease 8 Mutant (Human immunodeficiency virus type 1 group M subtype B, UniProt P12497); test: HIV enzyme inhibition assay (Ki), 8 Mutant variant; format: biochemical; details: drug-resistant protease variant 8 Mutant
T3 construct: onto NL4-3 wild-type protease on a pET11a plasmid with codon optimization for protein expression in Escherichia coli; A Q7K mutation was included to prevent autoproteolysis

HTLV-1 protease [2] = molecular target: T1, HTLV-1 protease; format: biochemical; parameters: This protease construct has 9 amino acids removed from the C-terminus to facilitate crystallization; made in house; host or cells: Escherichia coli; details: 1:1 ratio inhibitor to protease (1 μM), 60 min, 37° C.
wild-type HIV-1 = test: HIV antiviral assay (293T / TZM-BL luciferase); format: cell-based; details: read-out: Antiviral WT EC50
HIV-1 protease KY24 = HIV-1 protease KY24 (Human immunodeficiency virus type 1, UniProt P12497); details: read-out: Ki KY24; drug-resistant protease variant KY24
HIV-1 protease 10 Mutant = molecular target: T4, HIV-1 protease 10 Mutant (Human immunodeficiency virus type 1 group M subtype B, UniProt P12497); test: HIV enzyme inhibition assay (Ki), 10 Mutant variant; format: biochemical; details: drug-resistant protease variant 10 Mutant
T4 construct: onto NL4-3 wild-type protease on a pET11a plasmid with codon optimization for protein expression in Escherichia coli; A Q7K mutation was included to prevent autoproteolysis

[3] = system: SP cells (chronically infected with HTLV-1); test: SP cell Gag processing (HTLV-1 maturation) immunoblot; format: cell-based; details: for FL Gag band percentage (mean±SEM): 48 h; for amount of full-length (FL) Gag and larger size cleavage intermediates (CI): SP cell lysates and supernatants, 50 μM or 100 μM
Protocol: SP Cell Culture and Protease Inhibition Treatments. SP cells were cultured in RPMI (Invitrogen, Carlsbad, Calif., USA) containing 20% HyClone (FC3) from Thermo Scientific (Waltham, Mass.) and 1% penicillin-streptomycin from Life Technologies (Grand Island, N.Y., USA) and supplemented with human IL-2 (Roche Diagnostics, Indianapolis, Ind., USA) at a concentration of 10 U/mL. Cells were grown to a density of […], and the media was exchanged into media containing the drug treatment at the two concentrations tested (50 μM and 100 μM). DMSO was used as a treatment control at the max concentration (0.01% v/v) as used for the sample with the highest inhibitor concentrations. Cells were treated for 48 h in an incubator at 37° C. with 5% CO2. To harvest the samples, the cell culture supernatant and cells were separated with a 5 min spin at 1000 g. The cell culture supernatant was filtered through a 0.22 μm syringe filter and ultracentrifuged over an 8% Optiprep cushion (Millipore Sigma, USA) (109,000 g for 1.5 hat 4° C.) in a 50.1 Ti rotor (Beckman Coulter, USA). The resulting viral pellet was resuspended in 200 μL of RIPA buffer (150 mM NaCl, 1% (v/v) Nonidet P-40, 0.5% sodium deoxycholate, 0.1% SDS, 25 mM Tris pH 7.4) supplemented with a cOmplete, Mini, EDTA-free cellular Protease Inhibitor Cocktail (Roche Diagnostics, Indianapolis, Ind., USA). The SP cell pellet was washed once with phosphate buffered saline (PBS) and resuspended in a final volume of 200 μL of a RIPA buffer cOmplete, Mini, EDTA-free cellular Protease Inhibitor Cocktail (Roche Diagnostics, Indianapolis, Ind., USA). Immunoblot samples were then prepared and detected as described in the previous method section. Gel band quantification analysis was performed using Fiji. A one-tailed t test for two independent means (95% confidence) was used to determine if the FL Gag band from the various drug treatments in the immunoblot analysis was statistically different from the DMSO controls.
To further validate inhibition of HTLV-1 protease, SP cells (which are chronically infected with HTLV-1) were treated with the same inhibitors (FIG. 20). The SP cell line harbors low numbers of HTLV-1 proviruses and produces virus particles that incorporate full-length Gag, which makes SP an ideal cell culture system for testing the inhibition of HTLV-1 maturation. Gag cleavage products were detected by using a CA (p24) primary antibody in both SP cell lysates and virus particles released in the cell culture supernatants. […] For the Ex.7 treatment of the viral particles produced from the SP cells, the FL Gag band percentage was 5.8±2.8% and 12.9±3.1% (mean±SEM) for 50 μM and 100 μM treatments, respectively (FIGS. 21, 23).

HIV-1 protease I50V/A71V = molecular target: T5, HIV-1 protease I50V/A71V (Human immunodeficiency virus type 1 group M subtype B, UniProt P12497, A559V/I538V/Q495K); test: HIV enzyme inhibition assay (Ki), I50V/A71V variant; format: biochemical; details: drug-resistant protease variant I50V/A71V
T5 construct: onto NL4-3 wild-type protease on a pET11a plasmid; made in house

HIV-1 protease 11 Mutant = molecular target: T6, HIV-1 protease 11 Mutant (Human immunodeficiency virus type 1 group M subtype B, UniProt P12497); test: HIV enzyme inhibition assay (Ki), 11 Mutant variant; format: biochemical; details: drug-resistant protease variant 11 Mutant
T6 construct: onto NL4-3 wild-type protease on a pET11a plasmid with codon optimization for protein expression in Escherichia coli; A Q7K mutation was included to prevent autoproteolysis

HTLV-1 protease [4] = molecular target: T1, HTLV-1 protease; test: biochemical

| Compound | fold improvement of Ki compared to DRV (HTLV-1 protease [1]; relative to DRV) | fold better inhibition than UM6 (HTLV-1 protease [1]; relative to UM6) | Ki (HIV-1 protease I84V) | Ki (HIV-1 protease 8 Mutant) | inhibition of Gag cleavage and VLP maturation (HTLV-1 protease [2]) | EC50 (wild-type HIV-1) | Ki (HIV-1 protease KY24) | Ki (HIV-1 protease 10 Mutant) | FL Gag band percentage (mean±SEM) ([3]; SP cell lysate, 50 μM) | FL Gag band percentage (mean±SEM) ([3]; SP cell lysate, 100 μM) | amount of full-length (FL) Gag and larger size cleavage intermediates (CI) [3] | FL Gag band percentage (mean±SEM) ([3]; viral particles produced from SP cells, 50 μM) | FL Gag band percentage (mean±SEM) ([3]; viral particles produced from SP cells, 100 μM) | Ki (HIV-1 protease I50V/A71V) | Ki (HIV-1 protease 11 Mutant) | Ki (HTLV-1 protease [4]) |
| --- | --- | --- | --- | --- | --- | --- | --- | --- | --- | --- | --- | --- | --- | --- | --- | --- |
| CCOP(=O)(COc1ccc(C[C@H](NC(=O)O[C@H]2CO[C@H]3OCC[C@H]32)[C@H](O)CN(CC(CC)CC)S(=O)(=O)c2ccc(N)cc2)cc1)OCC [Example 7, (3R,3aS,6aR)-hexahydrofuro[2,3-b]furan-3-yl ((2S,3R)-4-((4-amino-N-(2-ethylbutyl)phenyl)sulfonamido)-1-(4-((diethoxyphosphoryl)methoxy)phenyl)-3-hydroxybutan-2-yl)carbamate] | 26 fold | 4 fold | < 0.005 nM | 4.71 ± 0.73 nM | effectively inhibited Gag cleavage and VLP maturation | 16 nM | 1.08 ± 0.06 nM | 51.6 ± 5.5 nM | 32.4±15.5% | 41.0±13.7% | increased | 5.8±2.8% | 12.9±3.1% | < 0.005 nM | 106 ± 7 nM | 30 ± 10 nM |
| CC(C)CN(C[C@@H](O)[C@H](Cc1ccccc1)NC(=O)O[C@H]1CO[C@H]2OCC[C@H]21)S(=O)(=O)c1ccc(N)cc1 [DRV, darunavir, reference compound] | – | – | – | – | effectively inhibited Gag cleavage and VLP maturation | 4.75 nM | – | – | – | – | increased | – | – | – | – | – |
